# According to patent publication US20220228192A1, “Method To Evaluate Metabolic Activity Of Liver Enzymes” (Owlstone Medical Limited, priority 2018, published 2022):
# Experiments:
# [1] = Breath Biopsy: VOCs in exhaled breath after ingestion of a peppermint capsule; format: in vivo; details: for relative abundance among peppermint-related compounds in breath / VOC level in breath compared to baseline pre-ingestion controls: single individual; for VOC level in breath compared to baseline pre-ingestion controls: breath captured 30 minutes after consumption of the peppermint capsule, FIG. 1
# Protocol: For comparison, two breath collections were made from the same individual prior to ingestion to provide a baseline concentration for the VOCs of interest. Breath samples were analysed in the Breath Biopsy® Clinical Lab by FAIMS and TD-GC-TOF mass spectrometry.
# [2] = test system: CYP2C19 and CYP2C9 enzymes; test: Clinical study: limonene in exhaled breath, patients treated with an atherothrombotic drug versus untreated controls; format: in vivo; details: drug metabolised by CYP2C19 and CYP2C9 competes with limonene metabolism; FIG. 5
# Excerpt: FIG. 5. Limonene concentration in the exhaled breath of patients prescribed with an atherothrombotic drug that is metabolised by CYP2C19 and CYP2C9 enzymes.
# The drug is metabolised by CYP2C19 and CYP2C9 enzymes. […] As less limonene is metabolised compare dot eh control group.
# CYP3A4 = CYP3A4 (Homo sapiens, UniProt P08684); details: cited from earlier work
# CYP3A4, sequence (P08684 whole entry): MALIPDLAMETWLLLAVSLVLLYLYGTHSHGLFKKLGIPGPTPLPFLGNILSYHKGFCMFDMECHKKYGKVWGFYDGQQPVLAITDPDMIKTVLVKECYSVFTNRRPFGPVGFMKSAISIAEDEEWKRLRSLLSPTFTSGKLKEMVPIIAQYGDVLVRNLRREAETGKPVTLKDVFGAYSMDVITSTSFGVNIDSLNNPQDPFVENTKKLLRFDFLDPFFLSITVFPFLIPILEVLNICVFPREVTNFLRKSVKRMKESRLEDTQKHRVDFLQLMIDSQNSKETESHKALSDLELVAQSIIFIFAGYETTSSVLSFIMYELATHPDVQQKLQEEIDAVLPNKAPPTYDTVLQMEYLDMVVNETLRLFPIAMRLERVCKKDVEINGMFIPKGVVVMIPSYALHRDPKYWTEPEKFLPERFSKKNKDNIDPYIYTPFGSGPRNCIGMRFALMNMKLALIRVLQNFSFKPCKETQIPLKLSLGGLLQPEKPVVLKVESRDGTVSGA
# [3] = after consumption of the peppermint capsule
SMILES,VOC level in breath compared to baseline pre-ingestion controls [1],"concentration in breath [1, 3]","relative abundance among peppermint-related compounds in breath [1, 3]","limonene in exhaled breath, drug-treated patients versus untreated control group [2]",metabolising enzyme (CYP3A4)
C=C(C)[C@H]1CC=C(C)CC1 [limonene],large increase,part-per-trillion (ppt) concentrations,most abundant,higher secretion of limonene into breath,–
CC1CCC(C(C)C)C(O)C1 (racemic) [(±)-menthol],large increase,–,–,–,–
CC12CCC(CC1)C(C)(C)O2 [eucalyptol],large increase,–,–,–,specifically metabolised by CYP3A4

# Now from value to compound, other results behind:
VOC level in breath compared to baseline pre-ingestion controls [1],SMILES,"concentration in breath [1, 3]","relative abundance among peppermint-related compounds in breath [1, 3]","limonene in exhaled breath, drug-treated patients versus untreated control group [2]",metabolising enzyme (CYP3A4)
large increase,C=C1CCC2CC1C2(C)C (stereo not drawn) [β-pinene],–,most abundant,–,–
large increase,CC1=CCC2CC1C2(C)C (stereo not drawn) [α-pinene],–,–,–,–
